Measurements: ChEMBL document CHEMBL5727130, “Pyridone derivative, pharmaceutical containing the same and methods of use thereof” (2018)

Test: Inhibition Assay: The TACE inhibition test was carried out by measuring TACE activity in the presence and the absence of the test substance using the thus-obtained TACE as an enzyme, and a fluorescent synthetic substrate Nma(N-methylanthranilic acid)-Leu-Ala-Gln-Ala-Val-Arg-Ser-Ser-Lys(Dnp(dinitrophenyl))-D-Arg-NH2 (SEQ ID NO: 1) including the TACE-cleaved sequence of a membrane-bound TNF as a substrate. The TACE inhibition test method is shown below. Namely, 90 μL of an enzyme solution prepared with an assay buffer A (50 mM tris-hydrochloric acid buffer (pH 7.5) including 200 mM sodium chloride, 5 mM calcium chloride, 10 μM zinc sulfate, and 2 mg/mL bovine serum albumin) and 90 μL of a fluorescent synthetic substrate prepared with an assay buffer B (50 mM tris-hydrochloric acid buffer (pH 7.5) including 200 mM sodium chloride, 5 mM calcium chloride, 10 μM zinc sulfate, and 0.05% PLURONIC F-68) were mixed together, and reacted at 37° C. for 1.5 hours. Enzyme activity was then determined by measuring with a fluorescence intensity meter (Labsystems, Fluoroskan Ascent) at an excitation wavelength of 355 nm and a measurement wavelength of 460 nm.

Structure (SMILES) | IC50
Cc1cccn(CC2(c3ccc(Oc4ccc(Cl)cc4)cc3)NC(=O)NC2=O)c1=O (configuration not stated) | < 100 nM
Cc1cccn(CC2(c3ccc(F)c(F)c3)NC(=O)NC2=O)c1=O (configuration not stated) | < 100 nM
